Test results reported in US9546401B2, “Assays and methods for selecting a treatment regimen for a subject with depression” (The General Hospital Corporation, priority 2011, dated 2017).
Like-named read-outs stand apart in the source and are kept apart here.

System: MDD patients carrying the indicated biomarkers
Procedure: Folate levels are classified as either low (<=2.5 ng/ml) or normal; and homocysteine levels as either normal or elevated (>=[…]). The presence or absence of at least one […] allele for the MTHFR gene are entered as a dichotomous variable (present or absent). […] Using folate as an example predicator, the presence or absence of a low serum-folate level along with treatment assignment can be entered in a 2×2, factorial ANOVA, using depression improvement scores (baseline minus endpoint HAM-D-17 scores) as the dependant variable. […] Similar analyses (i.e. separate 2×2 ANOVA's) can be performed substituting the presence of low folate levels for the presence of other predictors as described herein. Similarly, the effect of other predictors can be indicated by the interaction term representing the potential modulating influence of those variables.
The efficacy effect is determined by measuring the mean change in the HAMD-17 score and HAMD-28 score by the end of Phase I and Phase II, as compared to the baseline.

[1] = Phase II, BMI < 30 kg/m^2 and HNE-His < median
[2] = Phase II, BMI < 30 kg/m^2 and SAM/SAH >= median
[3] = Phase II, BMI >= 30 kg/m^2 and HNE-His >= median
[4] = Phase II, BMI*treat (interaction of BMI with the treatment)
[5] = Phase II, MTHFR 677 CC and BMI < 30 kg/m^2
[6] = Phase II, MTHFR 677 CT or TT and BMI >= 30 kg/m^2
[7] = Phase II, MTHFR 677 CT or TT and HNE-His >= median
[8] = Phase II, MTR 2756 AA and BMI < 30 kg/m^2
[9] = Phase II, MTR 2756 AA and HNE-His < median
[10] = Phase II, MTR 2756 AA and MTRR 66 AA
[11] = Phase II, MTR 2756 AA and MTRR 66 AA and SAM/SAH >= median
[12] = Phase II, MTR 2756 AA and SAM/SAH >= median
[13] = Phase II, MTR 2756 AG or GG and BMI >= 30 kg/m^2
[14] = Phase II, MTR 2756 AG or GG and MTRR 66 AG or GG
[15] = Phase II, MTR 2756 AG or GG and MTRR 66 AG or GG and HNE-His >= median
[16] = Phase II, MTRR 66 AA and SAM/SAH >= median
[17] = Phase II, MTRR 66 AG or GG and HNE-His >= median
[18] = Phase II, SAM/SAH < median and HNE-His >= median
[19] = Phase II, SAM/SAH >= median and HNE-His < median
[20] = Pooled phases, 25 =< BMI < 30 kg/m^2

## CN1c2c(nc(N)[nH]c2=O)NC[C@@H]1CNc1ccc(C(=O)N[C@@H](CCC(=O)O)C(=O)O)cc1 [6(S)-5-MTHF, 6(S)-5-methyltetrahydrofolate]
Phase II, BMI < 25
  Effect on change in HAMD-28 score: −2.300
[1]
  Effect on change in HAMD-17 score: 3.667
  Effect on change in HAMD-28 score: 1.833
[2]
  Effect on change in HAMD-17 score: 1.500
  Effect on change in HAMD-28 score: 2.500
Phase II, BMI >= 30 kg/m^2
  Effect on change in HAMD-17 score: −3.009
  Effect on change in HAMD-28 score: −3.245
[3]
  Effect on change in HAMD-17 score: −4.233
  Effect on change in HAMD-28 score: −4.933
Phase II, BMI >= 30 kg/m^2 and SAM/SAH < median
  Effect on change in HAMD-17 score: −9.200
Phase II, BMI >= 30 kg/m^2 and SAM/SAH < median = 2.71 (plasma)
  Effect on change in HAMD-28 score: −10.350
[4]
  Effect on change in HAMD-17 score: 0.113
  Effect on change in HAMD-28 score: 0.082
[5]
  Effect on change in HAMD-17 score: −2.267
  Effect on change in HAMD-28 score: −3.000
Phase II, MTHFR 677 CC and HNE-His < median
  Effect on change in HAMD-17 score: −0.857
Phase II, MTHFR 677 CC and HNE-His < median = 3.28 (plasma)
  Effect on change in HAMD-28 score: −0.536
[6]
  Effect on change in HAMD-17 score: −7.333
  Effect on change in HAMD-28 score: −8.667
[7]
  Effect on change in HAMD-17 score: −7.500
  Effect on change in HAMD-28 score: −7.500
Phase II, MTR 2756 AA
  Effect on change in HAMD-17 score: −0.427
  Effect on change in HAMD-28 score: −0.446
[8]
  Effect on change in HAMD-17 score: 1.167
  Effect on change in HAMD-28 score: 0.917
[9]
  Effect on change in HAMD-17 score: 0.300
  Effect on change in HAMD-28 score: −0.125
[10]
  Effect on change in HAMD-17 score: −8.000
  Effect on change in HAMD-28 score: −8.000
Phase II, MTR 2756 AA and MTRR 66 AA and HNE-His < median
  Effect on change in HAMD-17 score: −8.667
Phase II, MTR 2756 AA and MTRR 66 AA and HNE-His < median = 3.28 (plasma)
  Effect on change in HAMD-28 score: −9.000
[11]
  Effect on change in HAMD-17 score: −7.000
  Effect on change in HAMD-28 score: −7.500
[12]
  Effect on change in HAMD-17 score: 1.971
  Effect on change in HAMD-28 score: 2.000
[13]
  Effect on change in HAMD-17 score: −12.167
  Effect on change in HAMD-28 score: −13.000
Phase II, MTR 2756 AG or GG and HNE-His >= median
  Effect on change in HAMD-17 score: −8.417
Phase II, MTR 2756 AG or GG and HNE-His >= median = 3.28 (plasma)
  Effect on change in HAMD-28 score: −9.500
[14]
  Effect on change in HAMD-17 score: −4.667
  Effect on change in HAMD-28 score: −6.583
[15]
  Effect on change in HAMD-17 score: −11.000
  Effect on change in HAMD-28 score: −12.000
Phase II, MTR 2756 AG or GG and MTRR 66 AG or GG and SAM/SAH < median
  Effect on change in HAMD-17 score: −6.500
Phase II, MTR 2756 AG or GG and MTRR 66 AG or GG and SAM/SAH < median = 2.71 (plasma)
  Effect on change in HAMD-28 score: −10.500
Phase II, MTR 2756 AG or GG and SAM/SAH < median
  Effect on change in HAMD-17 score: −2.500
Phase II, MTR 2756 AG or GG and SAM/SAH < median = 2.71 (plasma)
  Effect on change in HAMD-28 score: −7.500
Phase II, MTR 2756 AG/GG
  Effect on change in HAMD-17 score: −3.600
  Effect on change in HAMD-28 score: −5.300
Phase II, MTRR 66 AA and HNE-His < median
  Effect on change in HAMD-17 score: −1.667
Phase II, MTRR 66 AA and HNE-His < median = 3.28 (plasma)
  Effect on change in HAMD-28 score: −2.000
[16]
  Effect on change in HAMD-17 score: −3.000
  Effect on change in HAMD-28 score: −3.333
[17]
  Effect on change in HAMD-17 score: −3.500
  Effect on change in HAMD-28 score: −4.071
Phase II, MTRR 66 AG or GG and SAM/SAH < median
  Effect on change in HAMD-17 score: −6.190
Phase II, MTRR 66 AG or GG and SAM/SAH < median = 2.71 (plasma)
  Effect on change in HAMD-28 score: −7.381
[18]
  Effect on change in HAMD-17 score: −9.000
  Effect on change in HAMD-28 score: −12.000
[19]
  Effect on change in HAMD-17 score: 4.000
  Effect on change in HAMD-28 score: 4.500
Phase II, SAM/SAH*treat, first line under HAMD28
  Effect on change in HAMD-28 score: 1.483
Phase II, baseHAMD-17*treat (interaction of base HAMD-17 with the treatment)
  Effect on change in HAMD-17 score: −0.249
[20]
  Effect on change in HAMD-17 score: 3.331
  Effect on change in HAMD-28 score: 2.054
Pooled phases, BMI < 25
  Effect on change in HAMD-17 score: −1.248
